Experimental data: patent US7323485B2, “4-(substituted cycloalkylmethyl) imidazole-2-thiones, 4-(substituted cycloalkenylmethyl) imidazole-2-thiones, 4-(substituted cycloalkylmethyl) imidazol-2-ones and 4-(substituted cycloalkenylmethyl) imidazol-2-ones and related compounds” (Allergan, Inc., priority 2002, dated 2008)
Read-outs that look alike come from different tables or passages of the source.

Assays:
male Sprague-Dawley rats = assay: Sedative activity (exploratory behavior); type: in vivo, rat; conditions: intraperitoneally, up to a dose of 1 mg/kg
Procedure: To test sedation, six male Sprague-Dawley rats are given up to 3 mg/kg of the test compound in a saline or DMSO vehicle by intraperitoneal injection (i.p.). Sedation is graded 30 minutes following administration of the drug by monitoring locomotor skills as follows.
The Sprague-Dawley rats are weighed and 1 ml/kg body weight of an appropriate concentration (ie. 3 mg/ml for a final dose of 3 mg/kg) drug solution is injected intraperitoneally. Typically the test compound is formulated in approximately 10 to 50% DMSO. The results are compared to controls that are injected with 1 ml/kg saline or 10 to 50% DMSO. Rat activity is then determined 30 minutes after injection of the drug solution. Rats are placed in a dark covered chamber and a digicom analyzer (Omnitech Electronic) quantitates their exploratory behavior for a five-minute period. The machine records each time the rat interrupts an array of 32 photoelectric beams in the X and Y orientation.

[1] = tested on: rats with ligated L5 and L6 spinal nerves; assay: Chung model of neuropathic pain (tactile allodynia, von Frey hairs); type: in vivo; conditions: Rattus norvegicus, 0.5 h, 30 min following drug administration, read-out: % Pain Reversal ± SEM; for inhibition in vivo at 0.001 mg/kg: 1 μg/kg i.p.; for inhibition in vivo at 0.003 mg/kg: 3 μg/kg i.p.
From the text: A model in accordance with Kim and Chung 1992, Pain […], pp 355-363 (Chung model), for chronic pain (in particular peripheral neuropathy) involves the surgical ligation of the L5 (and optionally the L6) spinal nerves on one side in experimental animals. Rats recovering from the surgery gain weight and display a level of general activity similar to that of normal rats. However, these rats develop abnormalities of the foot, wherein the hindpaw is moderately everted and the toes are held together. More importantly, the hindpaw on the side affected by the surgery appears to become sensitive to pain from low-threshold mechanical stimuli, such as that producing a faint sensation of touch in a human, within about 1 week following surgery. This sensitivity to normally non-painful touch is called “tactile allodynia” and lasts for at least two months. The response includes lifting the affected hindpaw to escape from the stimulus, licking the paw and holding it in the air for many seconds. None of these responses is normally seen in the control group.
Rats are anesthetized before surgery. The surgical site is shaved and prepared either with betadine or Novacaine. Incision is made from the thoracic vertebra Xlll down toward the sacrum. Muscle tissue is separated from the spinal vertebra (left side) at the L4-S2 levels. The L6 vertebra is located and the transverse process is carefully removed with a small rongeur to expose the L4-L6 spinal nerves. The L5 and L6 spinal nerves are isolated and tightly ligated with 6-0 silk thread. The same procedure is done on the right side as a control, except no ligation of the spinal nerves is performed.
A complete hemostasis is confirmed, then the wounds are sutured. A small amount of antibiotic ointment is applied to the incised area, and the rat is transferred to the recovery plastic cage under a regulated heat-temperature lamp. On the day of the experiment, at least seven days after the surgery, typically six rats per test group are administered the test drugs by intraperitoneal (i.p.) injection or oral gavage. For i.p. injection, the compounds are formulated in approximately 10 to 50% DMSO and given in a volume of 1 ml/kg body weight.
Tactile allodynia is measured prior to and 30 minutes after drug administration using von Frey hairs that are a series of fine hairs with incremental differences in stiffness. Rats are placed in a plastic cage with a wire mesh bottom and allowed to acclimate for approximately 30 minutes. The von Frey hairs are applied perpendicularly through the mesh to the mid-plantar region of the rats' hindpaw with sufficient force to cause slight buckling and held for 6-8 seconds. The applied force has been calculated to range from 0.41 to 15.1 grams. If the paw is sharply withdrawn, it is considered a positive response. A normal animal will not respond to stimuli in this range, but a surgically ligated paw will be withdrawn in response to a 1-2 gram hair. The 50% paw withdrawal threshold is determined using the method of Dixon, W. J., Ann. Rev. Pharmacol. Toxicol. 20:441-462 (1980). The post-drug threshold is compared to the pre-drug threshold and the percent reversal of tactile sensitivity is calculated based on a normal threshold of 15.1 grams. The results are expressed in percent (%) MPE, where the MPE value reflects the percentage reversal of pain threshold to that of a normal animal (100%). Table 3 below indicates results of this test with Compounds 1, 7 and 29 of the invention, administered i.p. and in oral doses.

| SMILES | sedative effect (male Sprague-Dawley rats) | inhibition in vivo at 0.001 mg/kg ([1]; ip) [%] | inhibition in vivo at 0.003 mg/kg ([1]; ip) [%] | inhibition in vivo at 0.01 mg/kg ([1]; ip, 10 μg/kg i.p.) [%] | inhibition in vivo at 0.03 mg/kg ([1]; ip, 30 μg/kg i.p.) [%] | inhibition in vivo at 0.1 mg/kg ([1]; ip, 100 μg/kg i.p.) [%] | inhibition in vivo at 1 mg/kg ([1]; ip, 1000 μg/kg i.p.) [%] | inhibition in vivo at 0.1 mg/kg ([1]; po, 100 μg/kg p.o.) [%] | inhibition in vivo at 0.01 mg/kg ([1]; po, 10 μg/kg p.o.) [%] | inhibition in vivo at 0.03 mg/kg ([1]; po, 30 μg/kg p.o.) [%] | inhibition in vivo at 0.3 mg/kg ([1]; po, 300 μg/kg p.o.) [%] | inhibition in vivo at 0.3 mg/kg ([1]; ip, 300 μg/kg i.p.) [%] | inhibition in vivo at 1 mg/kg ([1]; po, 1000 μg/kg p.o.) [%] |
| --- | --- | --- | --- | --- | --- | --- | --- | --- | --- | --- | --- | --- | --- |
| O=C1c2ccccc2CCC1Cc1c[nH]c(=S)[nH]1 (single isomer, unassigned) [Compound 23, 2-(2-thioxo-2,3-dihydro-1H-imidazol-4-ylmethyl)-3,4-dihydro-2H-naphthalen-1-one] | no sedative effect | 0.7 ± 0.8 | 59 ± 5.8 | 74 ± 6.1 | 69 ± 10 |  |  |  |  |  |  |  |  |
| S=c1[nH]cc(CC2CCC3=C2CCC3)[nH]1 (stereo not drawn) [Compound 1, 4-(1,2,3,4,5,6-hexahydro-pentalen-1-ylmethyl)-1,3-dihydro-imidazole-2-thione] |  |  |  |  | 9 ± 2 | 13 ± 2 | 44 ± 7 | 29 ± 5 |  |  |  |  |  |
| S=c1[nH]cc(CC2CCc3ccccc32)[nH]1 (stereo not drawn) [Compound 7, 4-indan-1-ylmethyl-1,3-dihydro-imidazole-2-thione] |  | 1 ± 1 | 23 ± 4 | 58 ± 8 | 85 ± 6 | 89 ± 7 |  | 58 ± 8 | 1 ± 1 | 56 ± 10 | 61 ± 6 |  |  |
| S=c1[nH]cc(CC2CC=CC2)[nH]1 [Compound 18, 4-cyclopent-3-enylmethyl-1,3-dihydro-imidazole-2-thione] | no sedative effect |  |  | 5 ± 2.5 | 35 ± 5.2 | 72 ± 6.6 |  | 68 ± 4.4 |  | 1 ± 2 | 82 ± 5.9 | 71 ± 6.4 | 82 ± 8.1 |
| S=c1[nH]cc(CC2CCc3sccc3C2)[nH]1 (stereo not drawn) [Compound 29, 4-(4,5,6,7-tetrahydro-benzo[b]thiophen-5-ylmethyl)-1,3-dihydro-imidazole-2-thione] |  |  |  | 17 ± 3 | 61 ± 11 | 14 ± 2 |  |  |  |  |  |  |  |
| O=c1[nH]cc(CC2CCC3=C2CCC3)[nH]1 (stereo not drawn) [Compound 41, 4-(1,2,3,4,5,6-Hexahydro-pentalen-1-ylmethyl)-1,3-dihydro-imidazol-2-one] |  |  |  | 3 ± 1.6 | 71 ± 2.8 | 13 ± 1 |  |  |  |  |  |  |  |
| CC1=C(C)C(Cc2c[nH]c(=O)[nH]2)CC1 (stereo not drawn) [Compound 44, 4-(2,3-dimethyl-cyclopent-2-enylmethyl)-1,3-dihydro-imidazol-2-one] |  | 0.5 ± 2.9 | 24 ± 4.6 | 46 ± 9.1 | 62 ± 9.6 | 82 ± 5.8 |  |  |  |  |  |  |  |
| O=c1[nH]cc(CC2CCc3cc(F)ccc32)[nH]1 (stereo not drawn) [Compound 49, 4-(5-fluoro-indan-1-ylmethyl)-1,3-dihydro-imidazol-2-one] | no sedative effect | 2.3 ± 1.3 | 23 ± 3.8 | 39 ± 7.7 | 72 ± 8.2 | 80 ± 6.5 |  | 68 ± 4.8 |  | 43 ± 7.1 | 74 ± 6.8 |  |  |
| O=c1[nH]cc(C[C@H]2CCc3cc(F)ccc32)[nH]1 [Compound 61, R-(+)-4-(5-fluoro-indan-1-ylmethyl)-1,3-dihydro-imidazol-2-one] | no sedative effect |  |  |  |  |  |  |  |  |  |  |  |  |
